Laboratory results: patent publication US20070128294A1, “Treatment and prevention of liver adverse conditions using gallium” (priority 2005, published 2007)
“Also recorded” adds a separate entry of the source.

How the values were obtained:
[1] = Serum gallium quantitation in the adjuvant arthritis study; type: in vivo, Male Lewis rats; settings: daily oral 100 or 300 mg/kg, serum harvested one hour after final dosing
Protocol: Prophylactic treatment was initiated seven days prior to adjuvant injection by dosing with control vehicle or gallium maltolate (100 or 300 mg/kg gallium maltolate, containing 16 or 47 mg/kg gallium, respectively, in suspension with 1% carboxymethyl cellulose) seven days prior to adjuvant injection. Dosing was by daily oral gavage until termination. The dexamethasone-treated control animals were injected with a daily oral dose of dexamethasone (0.1 mg/kg). Body weights were measured regularly during the course of the study to track the effect of the drugs on the weight loss induced by the developing adjuvant disease, and dose volumes were adjusted accordingly. Prior to the onset of swelling, but after the establishment of systemic disease (about 7 days after adjuvant injection), caliper measurements were made of ankle joints. Ankles were measured every day until 14 days post-adjuvant injection when the rats were anesthetized and sacrificed. Serum was harvested one hour after final dosing for gallium quantitation. Hind paws, liver, and spleen were weighed, fixed, and processed for histopathologic evaluation. […] Splenic changes of inflammation, increased extramedullary hematopoiesis, and lymphoid atrophy were scored 0-5 using criteria similar to those used for scoring of inflammation. The primary endpoint was hepatomegaly, as determined by liver weight and histopathology.

[2] = tested on: adjuvant arthritic rats (adjuvant-induced hepatomegaly); test: Adjuvant-induced acute arthritis model: hepatomegaly, liver weight and histopathology; type: in vivo
From the text: A preclinical animal model was used to test the efficacy of oral gallium maltolate in treating hepatomegaly associated with adjuvant-induced acute arthritis. Male Lewis rats were used in the study. The study design was described in detail by Bendele et al. (1999) Toxicologic Pathology 27(1):134-142 and by Bendele (2001) J. Musculoskel. Neuron. Interact. 1(4):377-385.
Male Lewis rats (7 per group for gallium maltolate, 4 per group for normal controls and dexamethasone-treated controls) were injected with 100 μL of Freund's complete adjuvant/lipoidal amine (FCA/LA) subcutaneously at the base of the tail on study day 0 under anesthesia. There is a rapid onset (7 d) of arthritic symptoms in this model, including ankle inflammation, liver and spleen hypertrophy, bone resorption, and mild cartilage destruction.
Prophylactic treatment was initiated seven days prior to adjuvant injection by dosing with control vehicle or gallium maltolate (100 or 300 mg/kg gallium maltolate, containing 16 or 47 mg/kg gallium, respectively, in suspension with 1% carboxymethyl cellulose) seven days prior to adjuvant injection. Dosing was by daily oral gavage until termination. The dexamethasone-treated control animals were injected with a daily oral dose of dexamethasone (0.1 mg/kg). Body weights were measured regularly during the course of the study to track the effect of the drugs on the weight loss induced by the developing adjuvant disease, and dose volumes were adjusted accordingly. Prior to the onset of swelling, but after the establishment of systemic disease (about 7 days after adjuvant injection), caliper measurements were made of ankle joints. Ankles were measured every day until 14 days post-adjuvant injection when the rats were anesthetized and sacrificed. Serum was harvested one hour after final dosing for gallium quantitation. Hind paws, liver, and spleen were weighed, fixed, and processed for histopathologic evaluation. Adjuvant arthritic ankles were given scores of 0-5 (0=normal; 5=severe) for inflammation and bone resorption. Splenic changes of inflammation, increased extramedullary hematopoiesis, and lymphoid atrophy were scored 0-5 using criteria similar to those used for scoring of inflammation. The primary endpoint was hepatomegaly, as determined by liver weight and histopathology.

[3] = tested on: Con A-treated mice (acute liver injury); test: Concanavalin A-induced acute immune-mediated hepatitis; type: in vivo, Balb/c male mice; settings: 150 mg/kg oral gavage for 4 days prior to Con A
Protocol: Concanavalin A (Con A) is a powerful mitogen for and activator of T lymphocytes and its intravenous administration to mice initiates an acute immune-mediated hepatitis. The effect of preemptive gallium maltolate administration on the development of acute liver injury was assessed in vivo.
Liver injury was induced by injecting 6-8 week old Balb/c male mice (weight 25 g) with Con A, 25 mg/kg in 250 μl of phosphate-buffered saline via the tail vein. The test animals were divided into three groups of 2-8 mice each: • (a) Con A treatment • (b) Vehicle (1% carboxymethyl cellulose solution in water) per oral gavage for 4 days prior to Con A treatment • (c) 150 mg/kg gallium maltolate per oral gavage for 4 days prior to Con A treatment
For determination of serum alanine aminotransferase (ALT) levels, blood was drawn from different groups of mice 16 hours after administering Con A and measured by a commercially available enzyme assay. […] (FIG. 4). Histological assessment of centrilobular necrosis of the liver was rated for severity on a scale of 0 to 3.

[4] = tested on: human patient exposed to a liver-damaging agent; test: Human patient pretreated before exposure to a liver-damaging agent, serum liver enzymes monitored; type: in vivo; settings: oral tablet or capsule to at least 10 ng/mL serum gallium before exposure; monitored every 12 hours
Protocol: A human patient, prior to exposure to a liver-damaging agent, is treated with gallium in the form of gallium maltolate combined with the appropriate standard excipients and/or fillers, in tablet or capsule form. Sufficient gallium maltolate is administered to obtain at least 10 ng/mL gallium in the patient's serum. The amount of gallium maltolate plus excipients necessary to reach this level is dependent on the formulation used and the size of the patient. The patient continues to take the oral medication in an amount to build the level of serum gallium and to maintain the level of at least 10 ng/mL serum.
After a period of up to 72 hours, or when the gallium serum concentration reaches the desired level, the patient is exposed to the liver-damaging agent.
The serum levels of liver enzymes are monitored at the start of the gallium treatment and every 12 hours thereafter. In particular, levels of […] and SGOT are measured. […] Gallium maltolate administration is discontinued after risk of liver damage is terminated.

[5] = oral 100 and 300 mg/kg/day, adjuvant arthritic rats

With `Cc1occc(=O)c1[O-].Cc1occc(=O)c1[O-].Cc1occc(=O)c1[O-].[Ga+3]` [gallium maltolate] the “serum gallium levels attained” value [1] was “dose-dependent”, the “lobular pattern of liver, histology (FIG. 3A)” value ([2]; 300 mg/kg/day oral for 21 days, 100x magnification) was “No accentuation of the lobular pattern” and the signs of toxicity ([2]; daily oral dosing for 14 days, 100 or 300 mg/kg, Lewis rats) was “no signs of toxicity”. For the same compound, the “liver pathology, histopathological examination of the livers” value ([2]; gallium treated versus untreated adjuvant arthritic rats) was “inhibited the development of liver pathology”, the “liver hypertrophy (adjuvant-induced hepatomegaly)” value [2, 5] was “marked reduction; also recorded: Significant dose-dependent protection” and the spleen hypertrophy [2, 5] was “marked reduction”. For the same compound, the “serum alanine aminotransferase (ALT) levels” value ([3]; blood 16 hours after Con A, versus the other two test groups) was “greatly reduced”, the “centrilobular necrosis of the liver, histological assessment” value ([3]; severity scale 0 to 3) was “No necrosis” and the “serum levels of liver enzymes (SDOT and SGOT)” value [4] was “do not rise to any significant extent”.
